Laboratory results from patent US6573050B1, “Treatment, diagnosis and evaluation of anti-cancer therapy resistance in melanoma” (Sunnybrook & Women's College Health Sciences Centre, priority 1999, dated 2003).
Like-named read-outs stand apart in the source and are kept apart here.

Legend:
WM9 derived tumors = assay: WM9 tumors in immunodeficient CD-1 nude mice, CDDP treatment; type: in vivo; details: CDDP 2 mg/kg/2 days
Protocol: (§1) In order to determine the significance of TYRP2-mediated CDDP resistance in vivo, tumors were generated in immunodeficient CD-1 mice by subcutaneous injection of 2×10^6 cells of either MeWo or WM9. WM35 cells were not used for in vivo studies because they lack tumorigenicity (Bani et al. (1996) Cancer Res. 56:3075-3086). […] Mice bearing these tumors were treated with CDDP three times weekly at a dose of 2 mg/kg.
FIG. 13 illustrates the correlation between TYRP2 expression and CDDP resistance in vivo in WM9 cells. Tumors were generated in immunodeficient CD-1 nude mice by subdermally injecting WM9 cells. […] By day 18 of treatment, the tumors in 2 of 5 mice had completely disappeared.

[1] = tested on: XR9 cells (x-ray resistant variant of WM35); assay: MTS cytotoxicity assay, CDDP treatment; type: cell-based, human; details: 15 μM CDDP, 24 hour incubation, mean ± SEM, n=3
Protocol: Gamma radiation resistant mutant cell lines were selected using retroviral insertional mutagenesis, with selection based on resistance to gamma radition. X-ray resistant mutant cell lines, designated as “XR” were established.
(§2) To determine the correlation between levels of TYRP2 expression and CDDP resistance, the cells assessed in the UV(B) survival assay as shown in Table 2 were further assessed for resistance to CDDP. Cells were plated in 96-well plates and treated with 15 μM CDDP. After a 24 hour incubation, cell viability was determined by the MTS assay.

MeWo derived tumors = assay: MeWo tumors in immunodeficient CD-1 nude mice, CDDP treatment; type: in vivo; details: CDDP 2 mg/kg/2 days
Protocol: as §1
FIG. 12 illustrates the correlation between TYRP2 expression and CDDP resistance in vivo. Tumors were generated in immunodeficient CD-1 nude mice by subdermally injecting MeWo cells.

[2] = tested on: Clone E and Clone G cells vs WM35 cells; assay: CDDP resistance of retrovirally derived clones compared to parental WM35; type: cell-based, human; details: approximately
Protocol: (§3) Cells and Culture Conditions. All human melanoma cell lines were generously provided by Dr. Meenhard Herlyn (Wistar Institute, Philadelphia, Pa.). The CDDP-resistant variants of WM35 (designated as Clone A to Clone I) were established by retroviral insertioual mutagenesis of WM35 cells as described previously (Lu et al. (1995) Cancer Res. 55:1139-1145). Cells were routinely maintained in RPMI 1640 (Life Technologies) supplement with 5% FBS (Life Technologies) at 37° C. in a humidified atmosphere of 95% air; 5% CO2.
This technique of retroviral insertional mutagenesis was applied on WM35 cells, an early stage CDDP sensitive human melanoma cell line. WM35 cells were infected with a replication defective amphotrophic murine stein cell virus (MSCV) retrovirus and the pooled cells were subsequently selected for CDDP resistance.
From this technique, nine independently derived clones, Clone A to Clone I, were obtained. […] Since changes in tumor sensitivities in the range of 2-5 fold can account for loss of tumor responsiveness to anti-cancer therapeutic drugs, this difference could be clinically significant (Kuroda et al. (1991) Int. J. Cancer 47:732-737).

Clone E cells = assay: PARP cleavage, Western blot (apoptosis); type: cell-based, human; details: 15 μM CDDP, up to 24 hours
Protocol: (§4) SDS-PAGE and Western Blot Analysis. Cell lysates were prepared using lysis buffer consisting of 50 mM Tris, pH 7.4, 50 mM NaCl, 2 mM MgCl2, 1 mM EDTA, 05% IDEPAL CA-630 and protease inhibitors (0.1 mM PMSF, 100 μM sodium vanadate, 20 μg/ml leupeptin, 20 mM […], 1 mM benzamide). Protein concentrations were determined by the Bradford assay (BioRad Laboratories) and equivalent quantities of protein (25 μg) were resolved by SDS-polyacrylamide gel electrophoresis (Laemmli (1970) Nature, 227, 680-685). […] Membranes were then incubated with a horseradish-peroxidase conjugated goat anti-rabbit antibody (1:5000 dilution) and immunoreactive sites were detected by enhanced chemiluminescence (Amersham). […]
(§5) The mechanism of action of CDDP, as well as other DNA alkylating agents ultimately involves generation of DNA damage and subsequently the induction of apoptosis. In order to determine if the increased resistance to CDDP in the retrovirally derived clones was associated with a reduction in CDDP-induced apoptosis, the levels of apoptosis in one of these clones (Clone E) relative to its parental WM35 cells were determined following treatment with 15 μM CDDP.
(§6) Increased cleavage of poly-ADP-ribose-polymerase (PARP) from the 116 kDa to the smaller 84 kDa subunit in WM35 cells was detected as early as 6 bours following 15 μM CDDP treatment. […]

WM35 cells [3] = assay: PARP cleavage, Western blot (apoptosis); type: cell-based, human; details: 15 μM CDDP, as early as
Protocol: as §4, §5, §6

WM9 cells = assay: MTS cytotoxicity assay, CDDP treatment; type: cell-based, human; details: 15 μM CDDP
Protocol: as §3
(§7) FIG. 9 illustrates the response of melanoma cell lines to CDDP treatment. Each of the cell lines indicated were plated in 96-well plates at a density of 1×10^5 cells/well and treated with 15 μM CDDP for 24 hours. Percentage of viable cells were determined by the MTS assay. […] The levels TYRP2 expression in these cells directly correlated with their resistance to CDDP treatment (15 μM CDDP, 24 hours). For example, the cell line WM9, which expresses very low levels of TYRP2 was very sensitive to CDDP treatment (<20% of cells survived). Conversely, the cell lines WM451 and MeWo, for example, which express high levels of TYRP2 were resistant to CDDP treatment (approximately 80% of cells survived).
as §2

[4] = tested on: Clone E cells (CDDP-resistant variant of WM35); assay: MTS cytotoxicity assay, CDDP treatment; type: cell-based, human; details: 15 μM CDDP
Protocol: as §3, §7, §2

MeWo cells = assay: MTS cytotoxicity assay, CDDP treatment; type: cell-based, human; details: 15 μM CDDP
Protocol: as §3, §7, §2

WM451 cells = assay: MTS cytotoxicity assay, CDDP treatment; type: cell-based, human; details: 15 μM CDDP, 24 hours, MTS assay (FIG. 9)
Protocol: as §3, §7

1552C cells = assay: MTS cytotoxicity assay, CDDP treatment; type: cell-based, human; details: 15 μM CDDP, 24 hours, MTS assay (FIG. 9)
Protocol: as §3, §7

WM373 cells = assay: MTS cytotoxicity assay, CDDP treatment; type: cell-based, human; details: 15 μM CDDP, 24 hours, MTS assay (FIG. 9)
Protocol: as §3, §7

WM1341B cells = assay: MTS cytotoxicity assay, CDDP treatment; type: cell-based, human; details: 15 μM CDDP, 24 hours, MTS assay (FIG. 9)
Protocol: as §3, §7

[5] = tested on: WM35 cells vs Clone E cells; assay: DNA fragmentation assay, Cell Death Detection ELISA; type: cell-based, human; details: 15 μM CDDP, 18 hours
Protocol: DNA Fragmentation Assay. Levels of apoptosis were determined by quantifying DNA fragmentation using the Cell Death Detection ELISA Plus kit (Boehringer Mannheim). Briefly, cells were plated in 96-well plates at a density of 1×10^4 cells/well and allowed to attach overnight. Cells were treated with 15 μM CDDP for 18 hours and then lysed. Cell lysates were transferred to streptavidin-coated plates and used for ELISA analysis using anti-bistone-biotin and anti-DNA POD antibodies.
FIG. 2 illustrates DNA fragmentation analysis by ELISA using antibodies that recognize mono- and oligonucleotide fragments. Mono- and oligo-nucleosomes in the DNA of WM35 cells treated with 15 μM CDDP for 18 hours, were detected with a Cell Death ELISA Detection Kit (Boehringer Mannheim). The production of DNA 180 bp multimers was approximately 5 times greater in WM35 cells than in Clone E cells.

WM35 cells [6] = assay: MTS cytotoxicity assay, CDDP treatment; type: cell-based, human; details: 15 μM CDDP, 24 hour incubation, mean ± SEM, n=3
Protocol: as §3, §2

[7] = tested on: Clone E and Clone G cells vs WM35 cells
Protocol: (§8) Cytotoxicity Assay. The number of viable cells following a treatment was assessed using the CellTiter™ 96 Aqueous Non-Radioactive MTS Cell Proliferation Assay (Promega). Briefly, 1×10^4 cells/well were plated in 96-well plates, allowed to attach overnight and then administered therapeutic agents at various levels for 24 hours. Four hours prior to harvest, MTS/phenazine methosulfate was added to the cells and the number of variable cells was determined by measuring the quantity of formazan by spectrophotometric analysis at 490 nm.
(§9) The indicated cell lines were cultured in 96 well plates at a density of 8×10^3 cells per well and treated for 24 hours with either A) carboplatin; B) taxol; or C) methotrexate, at the indicated concentrations. Cell viabilities were determined using the MTS assay (Promega), measuring the cellular conversion of the tetrazolium salt, MTS, into formula which can be quantified at 490 nm.

[8] = tested on: Clone E and Clone G cells vs WM35 cells; assay: Cross resistance of CDDP-resistant clones, MTS assay; details: 24 hours treatment, various concentrations, MTS assay (FIG. 3)
Protocol: as §8, §9

[9] = 24 hour incubation, MTS assay, mean ± SEM, n=3

SMILES: N.N.[Cl][Pt][Cl] [CDDP, cis-diamminedichloroplatinum(II)]
- growth rates of tumors relative to saline treated controls (WM9 derived tumors): significant reduction in growth rates
- mice whose tumors had completely disappeared (WM9 derived tumors; by day 18 of treatment): 2 of 5
- % Survival [1]: 82.4 ± 1.7%
- growth rates of tumors, CDDP treated vs saline treated mice (MeWo derived tumors): did not differ
- increase in CDDP resistance compared to parental WM35 cells [2]: 2 to 3 fold
- increased levels of PARP cleavage (Clone E cells): not evident
- time at which increased PARP cleavage (116 kDa to 84 kDa subunit) was detected (WM35 cells [3]): 6 bours
- % Survival (WM9 cells; [9]): 13.8 ± 1.6%
- % of cells survived (WM9 cells; 24 hours, MTS assay (FIG. 9)): < 20%
- % Survival [4, 9]: 77.4 ± 6.7%
- survival compared to WM35 cells ([4]; 24 hours, MTS assay (FIG. 9)): substantially higher survival
- % Survival (MeWo cells; [9]): 77.0 ± 5.3%
- % of cells survived (MeWo cells; 24 hours, MTS assay (FIG. 9)): approximately 80%
- % of cells survived (WM451 cells): approximately 80%
- sensitivity to CDDP treatment (1552C cells): highly sensitive
- survival compared to WM35 cells (WM373 cells): substantially higher survival
- survival compared to WM35 cells (WM1341B cells): substantially higher survival
- production of DNA 180 bp multimers, WM35 cells relative to Clone E cells [5]: approximately 5 times
- % Survival (WM35 cells [6]): 52.6 ± 4.4%

SMILES: CN(Cc1cnc2nc(N)nc(N)c2n1)c1ccc(C(=O)N[C@@H](CCC(=O)O)C(=O)O)cc1 [methotrexate]
- resistance of Clone E and Clone G to cytotoxic effects compared to WM35 cells [7]: more resistant

SMILES: N.N.O=C([O-])C1(C(=O)[O-])CCC1.[Pt+2] [carboplatin]
- resistance of Clone E and Clone G to cytotoxic effects compared to WM35 cells [8]: more resistant

SMILES: CC(=O)O[C@H]1C(=O)[C@@]2(C)[C@H]([C@H](OC(=O)c3ccccc3)[C@]3(O)C[C@H](OC(=O)[C@H](O)[C@@H](NC(=O)c4ccccc4)c4ccccc4)C(C)=C1C3(C)C)[C@]1(OC(C)=O)CO[C@@H]1C[C@@H]2O [taxol]
- resistance of Clone E and Clone G to cytotoxic effects compared to WM35 cells [7]: equally sensitive
